Test results: patent US9593122B2, “Substituted pyrazolylpyrazole derivative and use of same as herbicide” (KYOYU AGRI CO., LTD., priority 2013, dated 2017)

What was measured:
Experiment in all cases: Paddy herbicidal activity test
Assay type in all cases: in vivo
[1] = test system: Echinochloa crus-galli; conditions: irrigated paddy pot, treated at 3.5 leaf stage of Echinochloa crus-galli, 30 days
Protocol: (§1) Rice paddy soil was filled into a 1/10000 are pot followed by the addition of suitable amounts of water and chemical fertilizer, kneading, seeding with Echinochloa crus-galli, Monochoria vaginalis and Scirpus juncoides and maintaining in an irrigated state at a water depth of 3 cm.
(§2) Wettable powder of Target Compound (I) shown in Table 1 prepared in compliance with the preparation examples were diluted with a suitable amount of water, rice plants in the 2.0 leaf stage were transplanted during 3.5 leaf stage of Echinochloa crus-galli, and treated by dropping in chemical in the prescribed amount per are using a pipette.
(§3) After treating for 30 days in a glass greenhouse at an average atmospheric temperature of 30° C., the herbicidal efficacy thereof was investigated.
(§4) Evaluation of herbicidal efficacy was carried out by comparing growth inhibition rate (%) with an untreated group, while evaluation of phytotoxicity was carried out by comparing growth inhibition rate (%) with the state of a complete eradication group, and were evaluated at 11 levels indicated below.

[2] = test system: Monochoria vaginalis; conditions: irrigated paddy pot, 30 days
Protocol: as §1, §2, §3, §4

[3] = test system: Scirpus juncoides; conditions: irrigated paddy pot, 30 days
Protocol: as §1, §2, §3, §4

Compound	Echinochloa crus-galli herbicidal efficacy (growth inhibition level) ([1]; 1g a.i./10a)	Echinochloa crus-galli herbicidal efficacy (growth inhibition level) ([1]; 5g a.i./10a)	Monochoria vaginalis herbicidal efficacy (growth inhibition level) ([2]; 1g a.i./10a)	Monochoria vaginalis herbicidal efficacy (growth inhibition level) ([2]; 5g a.i./10a)	Scirpus juncoides herbicidal efficacy (growth inhibition level) ([3]; 1g a.i./10a)	Scirpus juncoides herbicidal efficacy (growth inhibition level) ([3]; 5g a.i./10a)
N#Cc1cnn(-c2nn3c(c2Cl)CCCC3)c1NCC(Cl)=CCl (mixture of isomers) [Compound 11]	8 (8: 80% to less than 90%)	9 (9: 90% to less than 100%)	8 (8: 80% to less than 90%)	9 (9: 90% to less than 100%)	7 (7: 70% to less than 80%)	8 (8: 80% to less than 90%)
N#Cc1cnn(-c2nn3c(c2Cl)CCCC3)c1N(CC(Cl)=CCl)C(=O)C(F)(F)F (mixture of isomers) [Compound 23]	8 (8: 80% to less than 90%)	9 (9: 90% to less than 100%)	8 (8: 80% to less than 90%)	9 (9: 90% to less than 100%)	7 (7: 70% to less than 80%)	8 (8: 80% to less than 90%)
CC=CCCN(C(=O)C(F)(F)F)c1c(C#N)cnn1-c1nn2c(c1Cl)CCCC2 (mixture of isomers) [Compound 26]	9 (9: 90% to less than 100%)	9 (9: 90% to less than 100%)	8 (8: 80% to less than 90%)	9 (9: 90% to less than 100%)	7 (7: 70% to less than 80%)	8 (8: 80% to less than 90%)
CC=CCNc1c([N+](=O)[O-])cnn1-c1nn2c(c1Cl)CCCC2 (mixture of isomers) [Compound 34]	9 (9: 90% to less than 100%)	9 (9: 90% to less than 100%)	9 (9: 90% to less than 100%)	9 (9: 90% to less than 100%)	8 (8: 80% to less than 90%)	8 (8: 80% to less than 90%)
CC=CCN(C(=O)C(F)(F)F)c1c([N+](=O)[O-])cnn1-c1nn2c(c1Cl)CCCC2 (mixture of isomers) [Compound 40]	8 (8: 80% to less than 90%)	9 (9: 90% to less than 100%)	8 (8: 80% to less than 90%)	8 (8: 80% to less than 90%)	7 (7: 70% to less than 80%)	8 (8: 80% to less than 90%)
N#Cc1cnn(-c2nn3c(c2Br)CCCC3)c1NCC(Cl)=CCl (mixture of isomers) [Compound 46]	7 (7: 70% to less than 80%)	8 (8: 80% to less than 90%)	7 (7: 70% to less than 80%)	8 (8: 80% to less than 90%)	7 (7: 70% to less than 80%)	8 (8: 80% to less than 90%)
CC=CCNc1c(C#N)cnn1-c1nn2c(c1Br)CCCC2 (mixture of isomers) [Compound 47]	9 (9: 90% to less than 100%)	10 (10: 100%)	8 (8: 80% to less than 90%)	9 (9: 90% to less than 100%)	7 (7: 70% to less than 80%)	8 (8: 80% to less than 90%)
CC=CCNc1c([N+](=O)[O-])cnn1-c1nn2c(c1Br)CCCC2 (mixture of isomers) [Compound 57]	9 (9: 90% to less than 100%)	10 (10: 100%)	8 (8: 80% to less than 90%)	9 (9: 90% to less than 100%)	7 (7: 70% to less than 80%)	8 (8: 80% to less than 90%)
C=CCCNc1c(C#N)cnn1-c1nn2c(c1Cl)CCCC2 [Compound 5]	9 (9: 90% to less than 100%)	10 (10: 100%)	9 (9: 90% to less than 100%)	9 (9: 90% to less than 100%)	7 (7: 70% to less than 80%)	8 (8: 80% to less than 90%)
N#Cc1cnn(-c2nn3c(c2Cl)CCCC3)c1NCCC(F)=C(F)F [Compound 6]	9 (9: 90% to less than 100%)	9 (9: 90% to less than 100%)	7 (7: 70% to less than 80%)	8 (8: 80% to less than 90%)	8 (8: 80% to less than 90%)	8 (8: 80% to less than 90%)
N#Cc1cnn(-c2nn3c(c2Cl)CCCC3)c1NC/C=C\Cl [Compound 7]	9 (9: 90% to less than 100%)	9 (9: 90% to less than 100%)	9 (9: 90% to less than 100%)	9 (9: 90% to less than 100%)	7 (7: 70% to less than 80%)	8 (8: 80% to less than 90%)
CC(C)=CCNc1c(C#N)cnn1-c1nn2c(c1Cl)CCCC2 [Compound 13]	9 (9: 90% to less than 100%)	10 (10: 100%)	8 (8: 80% to less than 90%)	9 (9: 90% to less than 100%)	8 (8: 80% to less than 90%)	8 (8: 80% to less than 90%)
C=CCN(C(=O)C(F)(F)F)c1c(C#N)cnn1-c1nn2c(c1Cl)CCCC2 [Compound 17]	9 (9: 90% to less than 100%)	10 (10: 100%)	8 (8: 80% to less than 90%)	8 (8: 80% to less than 90%)	9 (9: 90% to less than 100%)	9 (9: 90% to less than 100%)
C=CCCN(C(=O)C(F)(F)F)c1c(C#N)cnn1-c1nn2c(c1Cl)CCCC2 [Compound 18]	9 (9: 90% to less than 100%)	9 (9: 90% to less than 100%)	8 (8: 80% to less than 90%)	9 (9: 90% to less than 100%)	7 (7: 70% to less than 80%)	8 (8: 80% to less than 90%)
C=C(C)CN(C(=O)C(F)(F)F)c1c(C#N)cnn1-c1nn2c(c1Cl)CCCC2 [Compound 19]	9 (9: 90% to less than 100%)	10 (10: 100%)	9 (9: 90% to less than 100%)	9 (9: 90% to less than 100%)	7 (7: 70% to less than 80%)	8 (8: 80% to less than 90%)
N#Cc1cnn(-c2nn3c(c2Cl)CCCC3)c1N(CCC(F)=C(F)F)C(=O)C(F)(F)F [Compound 20]	9 (9: 90% to less than 100%)	9 (9: 90% to less than 100%)	8 (8: 80% to less than 90%)	9 (9: 90% to less than 100%)	8 (8: 80% to less than 90%)	8 (8: 80% to less than 90%)
CC(C)=CCN(C(=O)C(F)(F)F)c1c(C#N)cnn1-c1nn2c(c1Cl)CCCC2 [Compound 25]	9 (9: 90% to less than 100%)	10 (10: 100%)	9 (9: 90% to less than 100%)	9 (9: 90% to less than 100%)	8 (8: 80% to less than 90%)	8 (8: 80% to less than 90%)
